Patent US20040044055A1, “N-alkoxlyalkyl-substituted benzimidazoles and the use thereof as an agent against parastic protozoans” (priority 2000, published 2004)

Columns and labels:
Type in all cases: in vivo
Eimeria acervulina = assay: Cage experiment on coccidiosis/chicks; settings: chicks; for Efficacy against Eimeria acervulina: 1st figure of cell
Protocol: (§1) 8- to 12- day-old male chicks (e.g. LSL Brinkschulte/Senden) which have been reared coccidia-free receive the compounds according to the invention (test substances) in the concentration indicated in ppm with the feed from 3 days before (day −3) infection (=a.i.) until 8 (9) days after infection (=p.i.). 3 animals are kept in each cage. One or more groups of this type are employed per dose. Infection is carried out by means of a stomach tube directly into the crop with approximately 100,000 sporulated oocysts of Eimeria acervulina and with approximately 30,000 oocysts each of E. maxima and 40,000 sporulated oocysts of E. tenella. These are highly virulent strains. The exact infection dose is adjusted so that, if possible, one of three experimentally infected untreated chicks dies due to the infection. For assessment of the efficacy, the following criteria are taken into account: weight increase from the start of the experiment to the end of the experiment, death rate due to infection, macroscopic assessment of the faeces with respect to diarrhoea and excretion of blood on days 5 and 7 p.i. (assessment 0 to 6), macroscopic assessment of the intestinal mucosa, in particular of the appendices (assessment 0 to 6) and the oocyst excretion as well as the proportion (in %) of the oocysts sporulating in the course of 24 hours. The number of oocysts in the faeces was determined with the aid of a McMaster counting chamber (see Engelbrecht and coworkers “Parasitologische Arbeitsmethoden in Medizin and Veterinärmedizin” [Parasitological Working Methods in Medicine and Veterinary Medicine], Akademie-Verlag, Berlin (1965)). The individual findings are related to the untreated non-infected control groups and a total score is calculated (cf. A. Haberkorn (1986), pp. 263 to 270 in Research in Avian Coccidiosis ed L. R. McDougald, L. P. Joyner, P. L. Long, Proceedings of the Georgia Coccidiosis Conference, Nov. 18-20, 1985, Athens/Ga. USA).
(§2) In the column “ppm”, the concentration of the active compound employed in the feed is indicated in ppm.
(§3) In the column “mortality”, the percentage of the dead animals is indicated under % and the number of dead animals/animals employed in the experiment is indicated under n.
(§4) In the column “weight % of not inf. control”, the ratio of the weight of the treated animals to the weight of the non-infected control group is indicated.
(§5) In the columns “dropping scores”, “lesion score” and “oocyst control”, individual details of the action are given.
(§6) In the column “% efficacy”, the total score is assessed; 0% means no action, 100% means full action.

Eimeria maxima = assay: Cage experiment on coccidiosis/chicks; settings: chicks; for Efficacy against Eimeria maxima: 2nd figure of cell
Protocol: as §1, §2, §3, §4, §5, §6

Eimeria tenella = assay: Cage experiment on coccidiosis/chicks; settings: chicks; for Efficacy against Eimeria tenella: 3rd figure of cell
Protocol: as §1, §2, §3, §4, §5, §6

[1] = tested on: Eimeria acervulina, Eimeria maxima and Eimeria tenella; assay: Cage experiment on coccidiosis/chicks, mixed experimental infection; settings: chicks; for dropping scores / lesion score: assessment 0 to 6; for mortality n: dead animals/animals employed; for % efficay tot.: total score
Protocol: as §1, §2, §3, §4, §5, §6

CCOCn1c(C(F)(F)F)nc2c(C(F)(F)F)cc(OC(F)(F)F)cc21 [Ex. 3]
Efficacy against Eimeria acervulina (Eimeria acervulina; 1 ppm in feed): 0
Efficacy against Eimeria acervulina (Eimeria acervulina; 2.5 ppm in feed): 2
Efficacy against Eimeria acervulina (Eimeria acervulina; 5 ppm in feed): 2
Efficacy against Eimeria acervulina (Eimeria acervulina; 7.5 ppm in feed): 2
Efficacy against Eimeria acervulina (Eimeria acervulina; 10 ppm in feed): 1
Efficacy against Eimeria maxima (Eimeria maxima; 1 ppm in feed): 0
Efficacy against Eimeria maxima (Eimeria maxima; 2.5 ppm in feed): 2
Efficacy against Eimeria maxima (Eimeria maxima; 5 ppm in feed): 2
Efficacy against Eimeria maxima (Eimeria maxima; 7.5 ppm in feed): 2
Efficacy against Eimeria maxima (Eimeria maxima; 10 ppm in feed): 1
Efficacy against Eimeria tenella (Eimeria tenella; 1 ppm in feed): 0
Efficacy against Eimeria tenella (Eimeria tenella; 2.5 ppm in feed): 1
Efficacy against Eimeria tenella (Eimeria tenella; 5 ppm in feed): 2
Efficacy against Eimeria tenella (Eimeria tenella; 7.5 ppm in feed): 2
Efficacy against Eimeria tenella (Eimeria tenella; 10 ppm in feed): 1

CCOCn1c(C(F)(F)F)nc2cc(OC(F)(F)F)c(C(F)(F)F)cc21 [Ex. 1]
Efficacy against Eimeria acervulina (Eimeria acervulina; 1 ppm in feed): 0
Efficacy against Eimeria acervulina (Eimeria acervulina; 2.5 ppm in feed): 2
Efficacy against Eimeria acervulina (Eimeria acervulina; 5 ppm in feed): 2
Efficacy against Eimeria acervulina (Eimeria acervulina; 7.5 ppm in feed): 2
Efficacy against Eimeria acervulina (Eimeria acervulina; 10 ppm in feed): 2
Efficacy against Eimeria maxima (Eimeria maxima; 1 ppm in feed): 1
Efficacy against Eimeria maxima (Eimeria maxima; 2.5 ppm in feed): 2
Efficacy against Eimeria maxima (Eimeria maxima; 5 ppm in feed): 2
Efficacy against Eimeria maxima (Eimeria maxima; 7.5 ppm in feed): 2
Efficacy against Eimeria maxima (Eimeria maxima; 10 ppm in feed): 2
Efficacy against Eimeria tenella (Eimeria tenella; 1 ppm in feed): 1
Efficacy against Eimeria tenella (Eimeria tenella; 2.5 ppm in feed): 2
Efficacy against Eimeria tenella (Eimeria tenella; 5 ppm in feed): 2
Efficacy against Eimeria tenella (Eimeria tenella; 7.5 ppm in feed): 2
Efficacy against Eimeria tenella (Eimeria tenella; 10 ppm in feed): 1

CO[C@@H]1[C@@H](OC)[C@H](C)[C@@](O)(CC(=O)O)O[C@H]1[C@H](C)[C@H]1O[C@@]2(CC[C@@](C)([C@H]3CC[C@@](C)([C@@H]4O[C@@H]([C@H]5O[C@](C)(O)[C@H](C)C[C@@H]5C)C[C@@H]4O[C@@H]4C[C@H](OC)[C@@H](OC)[C@H](C)O4)O3)O2)C[C@H](O)[C@H]1C [MAD, maduramicin, reference compound]
oocyst in % of inf. control ac. (Eimeria acervulina; MAD 1 ppm in feed): >100%
oocyst in % of inf. control ac. (Eimeria acervulina; MAD 2 ppm in feed): >100%
oocyst in % of inf. control ac. (Eimeria acervulina; MAD 3 ppm in feed): >100%
oocyst in % of inf. control max. (Eimeria maxima; MAD 1 ppm in feed): >100%
oocyst in % of inf. control max. (Eimeria maxima; MAD 2 ppm in feed): >100%
oocyst in % of inf. control max. (Eimeria maxima; MAD 3 ppm in feed): >100%
oocyst in % of inf. control ten. (Eimeria tenella; MAD 1 ppm in feed): 85%
oocyst in % of inf. control ten. (Eimeria tenella; MAD 2 ppm in feed): >100%
oocyst in % of inf. control ten. (Eimeria tenella; MAD 3 ppm in feed): 75%
mortality % ([1]; MAD 1 ppm in feed): 67%
oocyst in % of inf. control tot. ([1]; MAD 1 ppm in feed): >100%
weight % of not inf. control ([1]; MAD 1 ppm in feed): 17%
dropping scores ([1]; MAD 1 ppm in feed): 6
lesion score ([1]; MAD 1 ppm in feed): 6
mortality n ([1]; MAD 1 ppm in feed): 2/3
% efficay tot. ([1]; MAD 1 ppm in feed): 0%
mortality % ([1]; MAD 2 ppm in feed): 0%
oocyst in % of inf. control tot. ([1]; MAD 2 ppm in feed): >100%
weight % of not inf. control ([1]; MAD 2 ppm in feed): 82%
dropping scores ([1]; MAD 2 ppm in feed): 2
lesion score ([1]; MAD 2 ppm in feed): 6
mortality n ([1]; MAD 2 ppm in feed): 0/3
% efficay tot. ([1]; MAD 2 ppm in feed): 29%
mortality % ([1]; MAD 3 ppm in feed): 0%
oocyst in % of inf. control tot. ([1]; MAD 3 ppm in feed): >100%
weight % of not inf. control ([1]; MAD 3 ppm in feed): 98%
dropping scores ([1]; MAD 3 ppm in feed): 0
lesion score ([1]; MAD 3 ppm in feed): 1
mortality n ([1]; MAD 3 ppm in feed): 0/3
% efficay tot. ([1]; MAD 3 ppm in feed): 44%

CC(C)COCn1c(C(F)(F)F)nc2cc(OC(F)(F)F)c(C(F)(F)F)cc21 [Ex. 2]
Efficacy against Eimeria acervulina (Eimeria acervulina; 1 ppm in feed): 1
Efficacy against Eimeria acervulina (Eimeria acervulina; 2.5 ppm in feed): 1
Efficacy against Eimeria acervulina (Eimeria acervulina; 5 ppm in feed): 0
Efficacy against Eimeria acervulina (Eimeria acervulina; 7.5 ppm in feed): 1
Efficacy against Eimeria acervulina (Eimeria acervulina; 10 ppm in feed): 1
Efficacy against Eimeria acervulina (Eimeria acervulina; 25 ppm in feed): 2
Efficacy against Eimeria acervulina (Eimeria acervulina; 50 ppm in feed): 2
oocyst in % of inf. control ac. (Eimeria acervulina; Ex. 2 2.5 ppm in feed): >100%
oocyst in % of inf. control ac. (Eimeria acervulina; Ex. 2 5 ppm in feed): 54%
oocyst in % of inf. control ac. (Eimeria acervulina; Ex. 2 7.5 ppm in feed): 56%
oocyst in % of inf. control ac. (Eimeria acervulina; Ex. 2 10 ppm in feed): 93%
Efficacy against Eimeria maxima (Eimeria maxima; 1 ppm in feed): 1
Efficacy against Eimeria maxima (Eimeria maxima; 2.5 ppm in feed): 1
Efficacy against Eimeria maxima (Eimeria maxima; 5 ppm in feed): 1
Efficacy against Eimeria maxima (Eimeria maxima; 7.5 ppm in feed): 1
Efficacy against Eimeria maxima (Eimeria maxima; 10 ppm in feed): 2
Efficacy against Eimeria maxima (Eimeria maxima; 25 ppm in feed): 2
Efficacy against Eimeria maxima (Eimeria maxima; 50 ppm in feed): 2
oocyst in % of inf. control max. (Eimeria maxima; Ex. 2 2.5 ppm in feed): >100%
oocyst in % of inf. control max. (Eimeria maxima; Ex. 2 5 ppm in feed): 0%
oocyst in % of inf. control max. (Eimeria maxima; Ex. 2 7.5 ppm in feed): 0%
oocyst in % of inf. control max. (Eimeria maxima; Ex. 2 10 ppm in feed): >100%
Efficacy against Eimeria tenella (Eimeria tenella; 1 ppm in feed): 1
Efficacy against Eimeria tenella (Eimeria tenella; 2.5 ppm in feed): 1
Efficacy against Eimeria tenella (Eimeria tenella; 5 ppm in feed): 0
Efficacy against Eimeria tenella (Eimeria tenella; 7.5 ppm in feed): 1
Efficacy against Eimeria tenella (Eimeria tenella; 10 ppm in feed): 1
Efficacy against Eimeria tenella (Eimeria tenella; 25 ppm in feed): 2
Efficacy against Eimeria tenella (Eimeria tenella; 50 ppm in feed): 2
oocyst in % of inf. control ten. (Eimeria tenella; Ex. 2 2.5 ppm in feed): >100%
oocyst in % of inf. control ten. (Eimeria tenella; Ex. 2 5 ppm in feed): 98%
oocyst in % of inf. control ten. (Eimeria tenella; Ex. 2 7.5 ppm in feed): 23%
oocyst in % of inf. control ten. (Eimeria tenella; Ex. 2 10 ppm in feed): 65%
mortality % ([1]; Ex. 2 2.5 ppm in feed): 33%
oocyst in % of inf. control tot. ([1]; Ex. 2 2.5 ppm in feed): >100%
weight % of not inf. control ([1]; Ex. 2 2.5 ppm in feed): 33%
dropping scores ([1]; Ex. 2 2.5 ppm in feed): 6
lesion score ([1]; Ex. 2 2.5 ppm in feed): 6
mortality n ([1]; Ex. 2 2.5 ppm in feed): 1/3
% efficay tot. ([1]; Ex. 2 2.5 ppm in feed): 2%
mortality % ([1]; Ex. 2 5 ppm in feed): 33%
oocyst in % of inf. control tot. ([1]; Ex. 2 5 ppm in feed): 73%
weight % of not inf. control ([1]; Ex. 2 5 ppm in feed): 65%
dropping scores ([1]; Ex. 2 5 ppm in feed): 6
lesion score ([1]; Ex. 2 5 ppm in feed): 6
mortality n ([1]; Ex. 2 5 ppm in feed): 1/3
% efficay tot. ([1]; Ex. 2 5 ppm in feed): 37%
mortality % ([1]; Ex. 2 7.5 ppm in feed): 33%
oocyst in % of inf. control tot. ([1]; Ex. 2 7.5 ppm in feed): 41%
weight % of not inf. control ([1]; Ex. 2 7.5 ppm in feed): 74%
dropping scores ([1]; Ex. 2 7.5 ppm in feed): 6
lesion score ([1]; Ex. 2 7.5 ppm in feed): 6
mortality n ([1]; Ex. 2 7.5 ppm in feed): 1/3
% efficay tot. ([1]; Ex. 2 7.5 ppm in feed): 36%
mortality % ([1]; Ex. 2 10 ppm in feed): 0%
oocyst in % of inf. control tot. ([1]; Ex. 2 10 ppm in feed): 83%
weight % of not inf. control ([1]; Ex. 2 10 ppm in feed): 69%
dropping scores ([1]; Ex. 2 10 ppm in feed): 6
lesion score ([1]; Ex. 2 10 ppm in feed): 6
mortality n ([1]; Ex. 2 10 ppm in feed): 0/3
% efficay tot. ([1]; Ex. 2 10 ppm in feed): 17%
